Values after ≈ are worked out from the molar mass of the structure shown. Active and inactive are the calls of the source. No cut-off for these calls is given here.
Columns and labels:
[1] = molecular target: Nucleotide-binding oligomerization domain-containing protein 2 (Homo sapiens, UniProt Q9HC29); experiment: (§1) Inhibition of human NOD2 expressed in HEK-Blue hNOD2 cells coexpressing NF-kappaB-inducible SEAP reporter gene assessed as inhibition of NF-kappaB transcriptional activity by measuring decrease in SEAP activity preincubated for 30 mins followed by C12-iE-DAP addition and measured after 18 hrs by absorbance based spectrophotometric analysis; type: cell-based
Chain of Nucleotide-binding oligomerization domain-containing protein 2 (Q9HC29 whole entry, the tested form may be a part): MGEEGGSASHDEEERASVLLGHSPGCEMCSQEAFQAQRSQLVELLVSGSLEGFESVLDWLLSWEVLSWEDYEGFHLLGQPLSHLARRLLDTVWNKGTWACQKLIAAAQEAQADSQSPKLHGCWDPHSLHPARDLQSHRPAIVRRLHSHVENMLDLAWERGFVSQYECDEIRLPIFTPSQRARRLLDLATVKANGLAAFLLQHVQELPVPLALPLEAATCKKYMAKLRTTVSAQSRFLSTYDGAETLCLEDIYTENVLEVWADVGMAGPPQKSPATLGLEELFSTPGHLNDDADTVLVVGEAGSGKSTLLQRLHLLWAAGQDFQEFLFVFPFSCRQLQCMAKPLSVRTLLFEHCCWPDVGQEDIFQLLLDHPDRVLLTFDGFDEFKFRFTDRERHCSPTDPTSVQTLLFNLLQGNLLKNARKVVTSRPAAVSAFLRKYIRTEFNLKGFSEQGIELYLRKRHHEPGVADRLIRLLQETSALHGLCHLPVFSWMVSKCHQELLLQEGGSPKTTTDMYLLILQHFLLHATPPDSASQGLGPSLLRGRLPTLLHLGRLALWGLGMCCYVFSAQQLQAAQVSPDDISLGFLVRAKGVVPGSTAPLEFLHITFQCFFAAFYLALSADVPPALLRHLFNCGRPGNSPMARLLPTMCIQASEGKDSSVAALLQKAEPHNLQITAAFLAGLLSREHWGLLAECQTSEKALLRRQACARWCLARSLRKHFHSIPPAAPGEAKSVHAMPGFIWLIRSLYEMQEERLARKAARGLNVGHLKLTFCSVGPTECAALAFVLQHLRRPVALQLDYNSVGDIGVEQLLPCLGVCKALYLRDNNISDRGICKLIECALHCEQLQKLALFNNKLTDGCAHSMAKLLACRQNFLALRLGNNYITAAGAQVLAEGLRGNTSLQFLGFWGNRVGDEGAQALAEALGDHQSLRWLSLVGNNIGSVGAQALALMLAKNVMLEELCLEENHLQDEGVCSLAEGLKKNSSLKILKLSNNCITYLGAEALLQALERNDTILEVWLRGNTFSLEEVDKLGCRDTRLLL

[2] = molecular target: Receptor-interacting serine/threonine-protein kinase 2 (Homo sapiens, UniProt O43353); experiment: Inhibition of human recombinant RIPK2 (1 to 317 residues) expressed in Sf21 insect cells using MBP as substrate preincubated for 10 mins followed by substrate addition and measured after 1 hr by ADP-Glo luminescence assay
Chain of Receptor-interacting serine/threonine-protein kinase 2 (O43353 whole entry, the tested form may be a part): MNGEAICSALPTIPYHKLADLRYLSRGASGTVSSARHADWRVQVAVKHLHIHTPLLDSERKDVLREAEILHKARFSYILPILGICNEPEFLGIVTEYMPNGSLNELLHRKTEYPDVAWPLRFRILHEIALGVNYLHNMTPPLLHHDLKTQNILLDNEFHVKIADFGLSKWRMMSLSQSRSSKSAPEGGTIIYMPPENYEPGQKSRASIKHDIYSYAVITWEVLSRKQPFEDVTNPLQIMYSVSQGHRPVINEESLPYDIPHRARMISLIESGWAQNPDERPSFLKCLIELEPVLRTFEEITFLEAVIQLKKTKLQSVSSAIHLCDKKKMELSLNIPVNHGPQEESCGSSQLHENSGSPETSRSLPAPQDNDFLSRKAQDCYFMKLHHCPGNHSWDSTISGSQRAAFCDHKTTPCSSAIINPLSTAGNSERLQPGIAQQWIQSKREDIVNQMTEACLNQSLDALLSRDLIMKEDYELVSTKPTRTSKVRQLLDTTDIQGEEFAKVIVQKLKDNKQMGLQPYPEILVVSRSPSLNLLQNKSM

[3] = molecular target: T1, Nucleotide-binding oligomerization domain-containing protein 1 (Homo sapiens, UniProt Q9Y239); experiment: as §1, with “NOD1” for “NOD2”, “hNOD1” for “hNOD2”; type: cell-based
T1 sequence (Q9Y239 whole entry): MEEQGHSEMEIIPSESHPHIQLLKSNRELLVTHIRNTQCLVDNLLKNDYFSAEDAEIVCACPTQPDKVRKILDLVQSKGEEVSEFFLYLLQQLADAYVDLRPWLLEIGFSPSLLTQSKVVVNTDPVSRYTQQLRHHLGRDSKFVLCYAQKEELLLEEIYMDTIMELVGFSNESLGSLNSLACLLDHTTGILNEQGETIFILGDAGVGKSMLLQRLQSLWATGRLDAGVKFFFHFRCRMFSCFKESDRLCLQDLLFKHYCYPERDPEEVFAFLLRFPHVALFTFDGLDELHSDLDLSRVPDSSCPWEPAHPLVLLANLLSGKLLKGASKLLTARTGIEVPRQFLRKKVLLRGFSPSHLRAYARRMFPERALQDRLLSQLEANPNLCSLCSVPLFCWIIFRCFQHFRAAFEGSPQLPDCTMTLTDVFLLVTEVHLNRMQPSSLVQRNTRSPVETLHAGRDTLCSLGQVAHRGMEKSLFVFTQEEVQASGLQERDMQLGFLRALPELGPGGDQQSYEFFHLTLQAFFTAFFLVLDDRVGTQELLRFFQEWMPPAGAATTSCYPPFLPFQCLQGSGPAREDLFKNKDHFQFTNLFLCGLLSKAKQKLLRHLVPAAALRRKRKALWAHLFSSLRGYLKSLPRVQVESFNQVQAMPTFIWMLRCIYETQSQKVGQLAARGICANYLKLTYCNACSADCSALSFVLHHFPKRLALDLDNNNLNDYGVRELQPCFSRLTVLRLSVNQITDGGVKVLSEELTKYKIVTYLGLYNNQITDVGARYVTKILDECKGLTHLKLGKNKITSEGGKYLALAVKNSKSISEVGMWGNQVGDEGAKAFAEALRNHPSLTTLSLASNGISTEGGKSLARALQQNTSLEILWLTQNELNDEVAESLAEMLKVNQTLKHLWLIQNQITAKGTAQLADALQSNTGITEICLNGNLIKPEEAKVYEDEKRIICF

[4] = Cytotoxicity against HEK-Blue hNOD1 cells assessed as reduction in cell viability at 1 uM measured after 72 hrs by celltiter 96 aqueous one solution cell proliferation assay; type: toxicity, cell-based; settings: human, hek-blue hnod1, 72 h
[5] = tested on: Huh-7; experiment: Cytotoxicity against human Huh-7 cells assessed as reduction in cell viability at 1 uM measured after 72 hrs by celltiter 96 aqueous one solution cell proliferation assay; type: toxicity, cell-based; settings: huh-7, 72 h
[6] = Cytotoxicity against human THP1-Blue NF-kappaB cells assessed as reduction in cell viability at 1 uM measured after 72 hrs by celltiter 96 aqueous one solution cell proliferation assay; type: toxicity, cell-based
[7] = molecular target: Epidermal growth factor receptor (Homo sapiens, UniProt P00533); experiment: Inhibition of recombinant EGFR (unknown origin) using PGT as substrate preincubated for 10 mins followed by substrate addition and measured after 1 hr in presence of ATP by ADP-Glo luminescence assay
Chain of Epidermal growth factor receptor (P00533 whole entry): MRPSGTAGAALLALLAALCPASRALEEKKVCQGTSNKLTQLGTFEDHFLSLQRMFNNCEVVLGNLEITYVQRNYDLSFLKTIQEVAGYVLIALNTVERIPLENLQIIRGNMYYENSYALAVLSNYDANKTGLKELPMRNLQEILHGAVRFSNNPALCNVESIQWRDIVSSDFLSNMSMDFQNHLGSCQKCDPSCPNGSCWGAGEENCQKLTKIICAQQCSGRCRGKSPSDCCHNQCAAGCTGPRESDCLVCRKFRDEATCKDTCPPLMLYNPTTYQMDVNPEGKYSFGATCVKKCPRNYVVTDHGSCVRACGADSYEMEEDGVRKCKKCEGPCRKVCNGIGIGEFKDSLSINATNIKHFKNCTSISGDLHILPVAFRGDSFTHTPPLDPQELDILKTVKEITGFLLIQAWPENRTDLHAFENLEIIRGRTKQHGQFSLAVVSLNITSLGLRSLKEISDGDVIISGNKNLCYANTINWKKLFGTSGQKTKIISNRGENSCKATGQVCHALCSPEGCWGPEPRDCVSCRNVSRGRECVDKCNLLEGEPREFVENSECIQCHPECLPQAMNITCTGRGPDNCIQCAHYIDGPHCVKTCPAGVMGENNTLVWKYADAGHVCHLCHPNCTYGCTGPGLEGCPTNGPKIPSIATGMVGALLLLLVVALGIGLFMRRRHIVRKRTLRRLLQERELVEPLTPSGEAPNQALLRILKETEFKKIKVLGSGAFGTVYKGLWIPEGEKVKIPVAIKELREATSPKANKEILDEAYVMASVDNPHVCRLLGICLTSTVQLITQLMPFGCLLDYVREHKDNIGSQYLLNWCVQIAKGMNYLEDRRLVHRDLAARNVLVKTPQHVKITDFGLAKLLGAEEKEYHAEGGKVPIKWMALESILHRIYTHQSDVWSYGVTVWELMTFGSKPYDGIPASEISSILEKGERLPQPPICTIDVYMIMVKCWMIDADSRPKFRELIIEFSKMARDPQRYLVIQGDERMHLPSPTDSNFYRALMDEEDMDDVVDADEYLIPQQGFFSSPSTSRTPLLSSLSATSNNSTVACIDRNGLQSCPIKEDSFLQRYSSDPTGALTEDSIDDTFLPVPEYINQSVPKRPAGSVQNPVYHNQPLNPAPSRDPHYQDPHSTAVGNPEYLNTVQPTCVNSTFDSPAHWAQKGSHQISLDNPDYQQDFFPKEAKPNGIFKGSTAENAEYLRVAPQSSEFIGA

[8] = Inhibition of recombinant VEGFR (unknown origin) using PGT as substrate preincubated for 10 mins followed by substrate addition and measured after 1 hr by ADP-Glo luminescence assay; set-up: species or system Homo sapiens
[9] = Solubility of the compound in PBS buffer at pH 7.4; type: physicochemical
[10] = Stability in plasma (unknown origin) assessed as half life; type: ADME, cell-free
[11] = Lipophilicity, logD of compound at pH 7.4; type: physicochemical; settings: buffer
[12] = Metabolic stability in liver microsomes (unknown origin) assessed as half life; type: ADME, Microsome
[13] = Metabolic stability in liver microsomes (unknown origin) assessed as intrinsic clearance; type: ADME, Microsome; settings: read-out: CLH
[14] = tested on: HEK-Blue hNOD1; experiment: Anti-inflammatory activity in HEK-Blue hNOD1 cells assessed as reduction in C12-iE-DAP stimulated IL-8 secretion at 0.01 to 1 uM preincubated for 1 hr followed by C12-iE-DAP addition and measured after 22 hrs by fluorescence based analysis; type: functional, cell-based; settings: Homo sapiens, dose 0.01-1 µM, time 23.0 hrs

Compound | IC50 [1] [nM] | IC50 [3] [nM] | other results
CCCS(=O)(=O)Nc1cc(-c2cc(-c3ccc(N4CCNCC4)cc3)cnc2N)cc(F)c1OC | 219 | – | IC50 [2]: 1.93 nM
COc1cc2ncnc(Nc3n[nH]c(C)c3C)c2cc1OC | > 10000 | > 10000 | –
COc1cc2ncnc(Nc3ccc(Br)cc3F)c2cc1OC | > 10000 | 549 | –
COc1cc(Nc2ncnc3cc(OC)c(OC)cc23)c(F)cc1Br | > 10000 | – | –
COc1cc2ncnc(Nc3ccc(F)c(Cl)c3)c2cc1OCCCN1CCOCC1 [GEFITINIB] | 1080 | 605 | Activity [4]: Non-toxic; Activity [5]: Non-toxic; Activity [6]: Non-toxic
COCCOc1cc2ncnc(Nc3cc(OC)c(Cl)cc3Cl)c2cc1OCCOC | > 10000 | – | –
COc1ccc(Cl)c(Nc2ncnc3cc(OC)c(OC)cc23)c1 | > 10000 | 686 | –
COc1cc2ncnc(Nc3ccc(Cl)cc3Cl)c2cc1OC | > 10000 | > 10000 | –
CCN(CC)CCOc1cc2ncnc(Nc3cc(OC)c(Cl)cc3Cl)c2cc1OC | > 10000 | 42 | IC50 [8]: > 1000 nM; IC50 [7]: > 1000 nM; solubility [9]: 31 µM (≈ 14.4 µg/mL); half-life [10]: > 6 h; logD [11]: 0.88; half-life [12]: > 0.667 h; microsomal CLint [13]: 29 µL/min/mg; Activity [4]: Non-toxic; Activity [5]: Non-toxic; Activity [6]: Non-toxic
COc1cc2ncnc(Nc3n[nH]c4ccc(F)cc34)c2cc1OC | > 10000 | – | –
CCN(CC)CCOc1cc2c(Nc3cc(OC)c(Cl)cc3Cl)ncnc2cc1OC | > 10000 | – | –
CCN(CC)CCOc1ccc2c(Nc3cc(OC)c(Cl)cc3Cl)ncnc2c1 | > 10000 | – | –
Cc1ccc(S(=O)(=O)n2c(N)nc3ccccc32)cc1 | > 10000 | – | IC50 [2]: > 1000 nM; Activity [14]: inactive
COc1cc2ncnc(Nc3ccccc3Cl)c2cc1OC | > 10000 | – | –
COc1cc2ncnc(-n3nc(N)c4cc(F)ccc43)c2cc1OC | > 10000 | – | –
COc1cc2ncnc(Nc3cc(O)c(Cl)cc3Cl)c2cc1OC | > 10000 | > 10000 | –
COc1cc(Nc2ncnc3cc(OC)c(OC)cc23)c(Cl)cc1Cl | > 10000 | – | IC50 [7]: 61.3 nM; Activity [4]: Non-toxic; Activity [5]: Non-toxic; Activity [6]: Non-toxic
COc1cc(Nc2ncnc3c(OC)c(OC)c(OC)cc23)c(Cl)cc1Cl | > 10000 | – | –

Second part, led by results:

IC50 [1] [nM] | IC50 [3] [nM] | Compound | other results
> 10000 | – | COc1cc2ncnc(Nc3ccncc3)c2cc1OC | –
> 10000 | – | COc1cc(Nc2ncnc3cc(OC)c(OC)cc23)ccc1Cl | –
> 10000 | – | COc1cc2ncnc(Nc3cc(N)ccn3)c2cc1OC | –
> 10000 | > 10000 | COc1cc2ncnc(Nc3ccccc3)c2cc1OC | –
> 10000 | – | COc1cc2ncnc(Nc3ccc(Cl)c(N)c3)c2cc1OC | IC50 [7]: 0.46 nM; Activity [4]: Non-toxic; Activity [5]: Non-toxic; Activity [6]: Non-toxic
> 10000 | – | COc1cc2ncnc(Nc3cc(Br)ccc3Br)c2cc1OC | –
> 10000 | – | COc1cc2ncnc(Nc3ccc(F)c(O)c3)c2cc1OC | IC50 [8]: 3.02 nM; IC50 [7]: 2.55 nM; Activity [4]: Non-toxic; Activity [5]: Non-toxic; Activity [6]: Non-toxic
> 10000 | – | COc1cc2ncnc(Nc3ccc(Br)c(O)c3)c2cc1OC | –
> 10000 | 157 | COc1cc2ncnc(Nc3cccc(O)c3)c2cc1OC | –
> 10000 | – | COc1cc2ncnc(Nc3ccc4scnc4c3)c2cc1OC.Cl | IC50 [7]: 36 nM; Activity [4]: Non-toxic; Activity [5]: Non-toxic; Activity [6]: Non-toxic
> 10000 | 1340 | COc1cc2ncnc(Nc3ccc(F)c(Cl)c3)c2cc1OC | –
> 10000 | 283 | COc1cc2ncnc(Nc3ccc(Cl)cc3)c2cc1OC | –
> 10000 | > 10000 | COc1cc2ncnc(Nc3cccc(N)c3)c2cc1OC | –
> 10000 | – | COc1cc2ncnc(Nc3ccc(Cl)c(Cl)c3)c2cc1OC | –
> 10000 | > 10000 | COc1cc2ncnc(Nc3cccc(Cl)c3)c2cc1OC | –
> 10000 | 33 | COc1cc2ncnc(Nc3ccc(Cl)c(O)c3)c2cc1OC.Cl | IC50 [8]: 1.39 nM; IC50 [7]: 0.84 nM; Activity [4]: Non-toxic; Activity [5]: Non-toxic; Activity [6]: Non-toxic

— ChEMBL document CHEMBL6092202, “4-Anilinoquinazoline Derivatives as the First Potent NOD1-RIPK2 Signaling Pathway Inhibitors at the Nanomolar Range” (J Med Chem, 2024)
